Assay results as given in ChEMBL document CHEMBL4482321, “Compounds and methods for treatment of cancer by inhibiting atg4b and blocking autophagy” (2017).
Activity calls are given as the source filed them. The rule behind the calls is not given here.

Experiments:
[1] = target: T1, Cysteine protease ATG4B (Homo sapiens) (UniProt Q9Y4P1); test: Inhibition of ATG4B (unknown origin) at 1.6 uM incubated up to 1 hr in presence of fluorescent protein substrate by FRET-based-LC3 cleavage assay relative to control
T1 sequence (whole entry): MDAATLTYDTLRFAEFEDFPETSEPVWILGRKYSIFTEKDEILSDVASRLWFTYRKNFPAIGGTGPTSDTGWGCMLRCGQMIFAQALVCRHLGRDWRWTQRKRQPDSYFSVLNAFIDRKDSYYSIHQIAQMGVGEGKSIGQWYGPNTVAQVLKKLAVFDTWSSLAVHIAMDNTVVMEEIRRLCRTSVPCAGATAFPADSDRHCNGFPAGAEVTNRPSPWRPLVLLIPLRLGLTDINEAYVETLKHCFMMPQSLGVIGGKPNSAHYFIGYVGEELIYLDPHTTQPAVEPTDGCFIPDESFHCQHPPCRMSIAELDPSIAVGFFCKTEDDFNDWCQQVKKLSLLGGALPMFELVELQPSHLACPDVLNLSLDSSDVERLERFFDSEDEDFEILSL

[2] = target: T1, Cysteine protease ATG4B (Homo sapiens); test: Inhibition of ATG4B (unknown origin) at 100 uM incubated up to 1 hr in presence of fluorescent protein substrate by FRET-based-LC3 cleavage assay relative to control
[3] = system: BV-173; test: Cytotoxicity against human BV173 cells assessed as reduction in colony forming cells at 5 to 10 uM in presence of 0.25 to 0.5 uM imatinib incubated for 2 weeks; type: functional, cell-based
[4] = species on record: Homo sapiens; test: Cytotoxicity against human CD34+ CML cells obtained from IM-nonresponding patient assessed as reduction in colony forming cells at 10 uM in presence of 5 imatinib incubated for 12 to 14 days; type: functional, cell-based
[5] = system: K562; test: Synergistic induction of apoptosis in human K562 cells assessed as reduction in cell viability at 5 to 10 uM in presence of 0.5 uM imatinib incubated for 72 hrs by Annexin V-APC and propidium iodide staining based flow cytometry relative to compound alone; type: functional
[6] = Cytotoxicity against human SUM149PT-R75 cells assessed as induction of cell killing incubated for 72 hrs by crystal violet staining based assay; type: functional
[7] = system: MDA-MB-231; test: Inhibition of autophagic flux in wortmannin-treated human MDA-MB-231 cells assessed as increase in LC3B-II levels at 50 uM by Western blot analysis; type: functional, cell-based
[8] = target: T2, Cysteine protease ATG4B (Homo sapiens, UniProt Q9Y4P1); test: Inhibition of ATG4B (unknown origin) incubated up to 1 hr in presence of fluorescent protein substrate by FRET-based-LC3 cleavage assay
T2 sequence (Q9Y4P1 whole entry): T1 sequence (whole entry)

[9] = system: MDA-MB-231; test: Inhibition of autophagic flux in bafilomycin A-treated human MDA-MB-231 cells assessed as increase in LC3B-II levels at 50 uM by Western blot analysis; type: functional, cell-based
[10] = system: K562; test: Synergistic cytotoxicity against human K562 cells assessed as reduction in cell viability at 5 to 10 uM in presence of 0.5 uM imatinib incubated for 72 hrs by trypan blue staining based assay relative to compound alone; type: functional
[11] = Cytotoxicity against human MDA-MB-231-R8 cells assessed as induction of cell killing incubated for 72 hrs by crystal violet staining based assay; type: functional
[12] = system: MDA-MB-231; test: Inhibition of autophagic flux in wortmannin-treated human MDA-MB-231 cells assessed as increase in p62 levels at 50 uM by Western blot analysis; type: functional, cell-based
[13] = species on record: Homo sapiens; test: Cytotoxicity against human CD34+ CML cells obtained from IM-nonresponding patient assessed as reduction in colony forming cells at 10 uM in presence of 150 nM DA incubated for 12 to 14 days; type: functional, cell-based
[14] = system: SUM149PT; test: Cytotoxicity against human SUM149PT cells assessed as induction of cell killing incubated for 72 hrs by crystal violet staining based assay; type: functional
[15] = system: Bone marrow cell; test: Cytotoxicity against human CD34+ normal bone marrow cells […] assessed as reduction in colony forming cells up to 10 uM incubated for 12 to 14 days; type: cell-based
[16] = system: MDA-MB-231; test: Inhibition of autophagic flux in bafilomycin A-treated human MDA-MB-231 cells assessed as increase in p62 levels at 50 uM by Western blot analysis; type: functional, cell-based
[17] = system: MDA-MB-231; test: Cytotoxicity against human MDA-MB-231 cells assessed as induction of cell killing incubated for 72 hrs by crystal violet staining based assay; type: functional; conditions: MDA-MB-231, 72 h

| Structure (SMILES) | inhibition [1] [%] | inhibition [2] [%] | IC50 [8] [µM] | IC50 [6] [µM] | IC50 [11] [µM] | IC50 [14] [µM] | IC50 [17] [µM] | further results |
| --- | --- | --- | --- | --- | --- | --- | --- | --- |
| O=C(O)CCC(NC(=O)Nc1ncc([N+](=O)[O-])s1)C(=O)O (stereo not drawn) | 10 | 27 |  |  |  |  |  |  |
| COc1ccc(CNC(=O)Nc2ncc([N+](=O)[O-])s2)cc1 |  |  | 1.6 | 26 to 35.1 | 5.92 to 9.09 | 15.2 to 22.6 | 17.6 to 23.4 |  |
| O=C(Nc1ncc([N+](=O)[O-])s1)NC(Cc1ccccc1)C(=O)O (stereo not drawn) | 0 | 17 |  |  |  |  |  |  |

Now from value to compound, other results behind:

| inhibition [1] [%] | inhibition [2] [%] | IC50 [8] [µM] | Structure (SMILES) | IC50 [6] [µM] | IC50 [11] [µM] | IC50 [14] [µM] | IC50 [17] [µM] | further results |
| --- | --- | --- | --- | --- | --- | --- | --- | --- |
| 0 | 3 |  | O=C(Nc1ccccn1)Nc1ncc([N+](=O)[O-])s1 |  |  |  |  |  |
|  |  | 1.7 | O=C(NCc1ccccc1)Nc1ncc([N+](=O)[O-])s1 | 24.5 to 34.1 | 23.3 to 30.8 | 25.6 to 33.2 | 42.9 to 59.1 | Activity [3]: Active; Activity [4]: Active; Activity [5]: Active; Activity [7]: Active; Activity [9]: Active; Activity [10]: Active; Activity [12]: Active; Activity [13]: Active; Activity [15]: Non-Toxic; Activity [16]: Active |
| 17 | 21 |  | O=C(Nc1ccccc1)Nc1ncc([N+](=O)[O-])s1 |  |  |  |  |  |
